Measurements from ChEMBL document CHEMBL1136440, “Design and synthesis of novel RXR-selective modulators with improved pharmacological profile” (Bioorg Med Chem Lett, 2003).
“And” between values parts separate entries of the source, which are not always exact repeats. Identical values can stand only once.

How the values were obtained:
[1] = target: T1, Retinoic acid receptor alpha (Homo sapiens, UniProt P10276); assay: Binding affinity against RAR alpha receptor using [3H]ATRA as radioligand in CV-1 cells; assay type: cell-based, Cercopithecidae
T1 sequence (P10276 whole entry): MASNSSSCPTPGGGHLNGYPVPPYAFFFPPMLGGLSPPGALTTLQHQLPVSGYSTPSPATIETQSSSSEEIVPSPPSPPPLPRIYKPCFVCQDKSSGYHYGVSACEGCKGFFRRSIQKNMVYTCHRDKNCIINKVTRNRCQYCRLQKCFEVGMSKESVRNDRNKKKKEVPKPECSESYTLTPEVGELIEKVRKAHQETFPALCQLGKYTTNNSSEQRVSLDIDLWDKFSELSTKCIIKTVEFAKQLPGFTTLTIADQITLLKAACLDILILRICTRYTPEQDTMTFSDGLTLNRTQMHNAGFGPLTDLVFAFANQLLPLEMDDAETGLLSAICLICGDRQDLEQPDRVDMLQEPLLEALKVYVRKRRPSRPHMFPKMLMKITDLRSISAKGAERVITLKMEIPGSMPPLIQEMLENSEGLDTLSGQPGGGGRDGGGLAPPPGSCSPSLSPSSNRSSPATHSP

[2] = target: T2, Retinoic acid receptor RXR-alpha (Homo sapiens, UniProt P19793); assay: biochemical
T2 sequence (P19793 whole entry): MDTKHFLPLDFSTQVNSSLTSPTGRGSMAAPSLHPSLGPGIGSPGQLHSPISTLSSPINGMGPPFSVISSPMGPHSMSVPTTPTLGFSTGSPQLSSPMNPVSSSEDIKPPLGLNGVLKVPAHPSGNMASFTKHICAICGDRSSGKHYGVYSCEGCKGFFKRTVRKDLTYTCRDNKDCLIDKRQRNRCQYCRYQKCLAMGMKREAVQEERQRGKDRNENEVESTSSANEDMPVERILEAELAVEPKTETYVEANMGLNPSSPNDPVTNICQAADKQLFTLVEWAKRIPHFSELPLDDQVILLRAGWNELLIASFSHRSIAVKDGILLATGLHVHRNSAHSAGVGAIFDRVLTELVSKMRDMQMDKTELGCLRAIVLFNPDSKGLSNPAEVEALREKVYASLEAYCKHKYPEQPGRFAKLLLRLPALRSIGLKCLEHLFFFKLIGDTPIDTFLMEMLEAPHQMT
Description: Binding affinity against RXR alpha receptor using [3H]9-cis-RA as radioligand in CV-1 cells

[3] = target: T3, Retinoic acid receptor alpha (Homo sapiens) (UniProt P10276); assay: Agonist synergy against RAR alpha was tested along with 3 nM TTNPB; assay type: functional; details: Cercopithecidae
T3 sequence (whole entry): T1 sequence (P10276 whole entry)

[4] = target: T4, Peroxisome proliferator-activated receptor gamma (Homo sapiens, UniProt P37231)
T4 sequence (P37231 whole entry): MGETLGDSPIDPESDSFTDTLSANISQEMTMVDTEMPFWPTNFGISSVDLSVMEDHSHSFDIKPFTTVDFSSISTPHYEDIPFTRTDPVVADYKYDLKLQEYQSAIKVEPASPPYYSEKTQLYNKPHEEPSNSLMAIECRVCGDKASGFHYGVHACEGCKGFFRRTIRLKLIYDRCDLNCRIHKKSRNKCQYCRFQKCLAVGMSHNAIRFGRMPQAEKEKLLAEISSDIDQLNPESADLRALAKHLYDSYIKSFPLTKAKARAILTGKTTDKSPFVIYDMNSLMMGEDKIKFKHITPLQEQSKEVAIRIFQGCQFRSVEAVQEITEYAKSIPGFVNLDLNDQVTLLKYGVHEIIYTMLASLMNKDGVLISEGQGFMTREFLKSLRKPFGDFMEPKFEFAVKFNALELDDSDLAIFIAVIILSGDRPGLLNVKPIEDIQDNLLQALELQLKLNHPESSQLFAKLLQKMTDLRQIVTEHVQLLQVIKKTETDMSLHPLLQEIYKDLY
Description: In vitro agonistic activity against PPAR gamma along with 100 nM BRL-49653

[5] = target: T5, Retinoic acid receptor beta (Homo sapiens, UniProt P10826); assay: Binding affinity against RAR beta receptor using [3H]ATRA as radioligand in CV-1 cells; assay type: cell-based, Cercopithecidae
T5 sequence (P10826 whole entry): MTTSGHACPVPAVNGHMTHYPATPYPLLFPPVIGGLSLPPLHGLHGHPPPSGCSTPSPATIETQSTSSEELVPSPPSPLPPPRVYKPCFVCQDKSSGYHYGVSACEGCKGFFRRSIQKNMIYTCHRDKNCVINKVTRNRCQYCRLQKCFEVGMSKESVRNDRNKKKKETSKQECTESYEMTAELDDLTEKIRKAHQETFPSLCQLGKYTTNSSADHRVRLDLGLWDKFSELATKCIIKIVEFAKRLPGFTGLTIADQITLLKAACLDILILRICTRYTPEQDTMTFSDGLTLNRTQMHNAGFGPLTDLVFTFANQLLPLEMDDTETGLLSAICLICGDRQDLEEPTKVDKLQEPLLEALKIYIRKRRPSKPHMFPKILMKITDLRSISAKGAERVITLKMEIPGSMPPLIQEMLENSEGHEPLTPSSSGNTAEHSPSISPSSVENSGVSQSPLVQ

[6] = target: T4, Peroxisome proliferator-activated receptor gamma; remark: listed apart in the source
Description: In vitro agonist efficacy against PPAR gamma along with 100 nM BRL-49653

[7] = target: T6, Retinoic acid receptor RXR-gamma (Homo sapiens, UniProt P48443); assay: Binding affinity against RXR gamma receptor using [3H]9-cis-RA as radioligand in CV-1 cells; assay type: cell-based, Cercopithecidae
T6 sequence (P48443 whole entry): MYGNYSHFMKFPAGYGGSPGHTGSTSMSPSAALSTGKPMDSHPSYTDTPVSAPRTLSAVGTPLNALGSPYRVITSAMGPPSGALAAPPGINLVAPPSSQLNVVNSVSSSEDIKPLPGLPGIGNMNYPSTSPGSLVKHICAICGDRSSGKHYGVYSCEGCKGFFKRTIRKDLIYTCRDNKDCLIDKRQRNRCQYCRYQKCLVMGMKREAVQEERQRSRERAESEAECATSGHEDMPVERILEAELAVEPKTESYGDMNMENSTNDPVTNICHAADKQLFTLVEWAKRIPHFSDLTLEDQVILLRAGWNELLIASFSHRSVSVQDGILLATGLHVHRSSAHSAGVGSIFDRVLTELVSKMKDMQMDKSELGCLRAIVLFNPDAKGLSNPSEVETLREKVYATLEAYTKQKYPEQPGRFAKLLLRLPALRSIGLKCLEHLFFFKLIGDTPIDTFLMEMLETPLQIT

[8] = target: T2, Retinoic acid receptor RXR-alpha; assay: In vitro antagonist activity against RXR alpha in CV-1 cells; assay type: functional, cell-based, Cercopithecidae
[9] = target: T7, Retinoic acid receptor RXR-beta (Homo sapiens, UniProt P28702); assay: Displacement of [3H]9-cis-RA from RXR beta receptor in CV-1 cells; assay type: cell-based, Cercopithecidae
T7 sequence (P28702 whole entry): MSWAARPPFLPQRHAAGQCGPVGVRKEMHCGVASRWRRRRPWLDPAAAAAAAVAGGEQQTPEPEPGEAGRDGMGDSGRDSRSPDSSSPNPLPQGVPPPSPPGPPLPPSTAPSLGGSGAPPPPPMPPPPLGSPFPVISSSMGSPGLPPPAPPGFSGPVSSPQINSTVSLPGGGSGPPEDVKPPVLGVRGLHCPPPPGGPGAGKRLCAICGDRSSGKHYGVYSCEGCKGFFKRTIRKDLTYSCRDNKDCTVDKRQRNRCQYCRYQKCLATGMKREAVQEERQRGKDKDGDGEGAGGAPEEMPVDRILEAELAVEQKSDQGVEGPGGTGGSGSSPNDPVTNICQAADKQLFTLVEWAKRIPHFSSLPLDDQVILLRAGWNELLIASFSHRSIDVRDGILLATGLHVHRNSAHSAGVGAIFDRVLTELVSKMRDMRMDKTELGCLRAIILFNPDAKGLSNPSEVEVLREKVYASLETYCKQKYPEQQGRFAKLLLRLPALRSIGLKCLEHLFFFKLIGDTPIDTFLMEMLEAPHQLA

[10] = target: T8, Retinoic acid receptor gamma (Homo sapiens, UniProt P13631); assay: Binding affinity against RAR gamma receptor using [3H]ATRA as radioligand in CV-1 cells; assay type: cell-based, Cercopithecidae
T8 sequence (P13631 whole entry): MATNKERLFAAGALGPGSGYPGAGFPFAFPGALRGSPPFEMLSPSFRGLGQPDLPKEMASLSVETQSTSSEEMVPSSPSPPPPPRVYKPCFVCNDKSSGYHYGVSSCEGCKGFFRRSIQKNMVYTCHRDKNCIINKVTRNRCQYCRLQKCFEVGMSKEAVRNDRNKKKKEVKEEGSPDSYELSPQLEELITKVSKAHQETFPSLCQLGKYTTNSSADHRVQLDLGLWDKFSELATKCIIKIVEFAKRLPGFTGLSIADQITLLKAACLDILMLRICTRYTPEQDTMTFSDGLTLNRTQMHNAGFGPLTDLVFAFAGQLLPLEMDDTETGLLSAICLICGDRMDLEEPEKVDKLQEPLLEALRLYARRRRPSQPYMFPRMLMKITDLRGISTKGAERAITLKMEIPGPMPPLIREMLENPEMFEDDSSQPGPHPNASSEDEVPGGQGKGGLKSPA

[11] = Area under curve at 0-8 hr in IRC mice after peroral administration; assay type: ADME, organism-based; design: time < 8 hr, route oral; details: mouse, in vivo, po
[12] = Tmax value in IRC mice; assay type: ADME, organism-based; details: mouse, in vivo
[13] = Cmax value in IRC mice; assay type: ADME, organism-based; details: mouse, in vivo

SMILES	Ki [1] [µM]	Ki [2] [µM]	Synergy [3] [nM]	EC50 [4] [µM]	Ki [5] [µM]	EC50 [6] [µM]	Ki [7] [µM]	IC50 [8] [µM]	Ki [9] [µM]	Ki [10] [µM]	AUC(0-t) at 8 h [11] [µg·h/mL]	Tmax [12] [h]	Cmax [13]
CCCOc1c(\C(C)=C/C=C/C(C)=C/C(=O)O)cc(C(F)(F)C(F)(F)F)cc1C(C)C	2.5	0.0256	1.4	0.0027	1.98	0.059	0.0276	0.0051	0.0172	> 1			
CC(/C=C/C(F)=C(/C)c1cc(C(C)(C)C)cc(C(C)(C)C)c1OCC(F)(F)F)=C\C(=O)O	4.66	0.0041	1.5	0.0122	6.01	0.03	0.0124	0.0072	0.0155	> 10			
C/C(=C/C=C/C(C)=C/C(=O)O)c1cc(C(C)(C)C)cc(C(C)(C)C)c1OCC(F)F	0.054				9.51		0.084		0.004	> 9.51	3.8	1	760 ng/mL and 1.81 µM
C/C(=C/C=C/C(C)=C/C(=O)O)c1cc(-c2cccs2)cc(C(C)C)c1OCC(F)F	4.55	0.0008	1.4	0.0047	2.11	0.015	0.0056	0.0019	0.0039	> 10			
CCC(C)(C)c1cc(\C(C)=C(F)/C=C/C(C)=C/C(=O)O)c(OCC(F)F)c(C(C)(C)CC)c1	6.59	0.0287	1.5	0.0027	5.33	0.051	0.0403	0.0137	0.0052	> 10			
CC(/C=C/[C@@H]1C[C@]1(C)c1ccc2c(c1)C(C)(C)CCC2(C)C)=C\C(=O)O [IRX-4204]			1.9	0.0086		0.054							

Other lines, results leading:

Ki [1] [µM]	Ki [2] [µM]	Synergy [3] [nM]	EC50 [4] [µM]	Ki [5] [µM]	EC50 [6] [µM]	Ki [7] [µM]	IC50 [8] [µM]	Ki [9] [µM]	Ki [10] [µM]	AUC(0-t) at 8 h [11] [µg·h/mL]	Tmax [12] [h]	Cmax [13]	SMILES
		6.9				0.012		0.075					Cc1cc2c(cc1C1(c3ccc(C(=O)O)cn3)CC1)C(C)(C)CCC2(C)C
3.73	0.0044	1.5	0.0041	4.62	0.047	0.0278	0.0047	0.0244	> 10				CCCCOc1c(\C(C)=C(F)/C=C/C(C)=C/C(=O)O)cc(C(C)C)cc1C(C)C
2.75	0.0214	1.2	0.0074	2.27	0.071	0.0457	0.004	0.0082	> 10				CCCCOc1c(\C(C)=C/C=C/C(C)=C/C(=O)O)cc(C(F)(F)C(F)(F)F)cc1C(C)C
> 10	0.001	1.6	0.0008	3.6	0.036	0.0029	0.0039	0.0074	> 10				C/C(=C/C=C/C(C)=C/C(=O)O)c1cc(-c2cccc(F)c2)cc(C(C)C)c1OCC(F)F
4.55	0.0008	1.1	0.0013	2.11	0.032	0.0056	0.0022	0.0039	> 10				C/C(=C/C=C/C(C)=C/C(=O)O)c1cc(-c2ccc(F)cc2)cc(C(C)C)c1OCC(F)F
4.66	0.0061	1	0.0163	2.61	0.078	0.0225	0.0579	0.0123	> 10				C/C(=C/C=C/C(C)=C/C(=O)O)c1cc(C(C)C)cc(-c2ccccc2)c1OCC(F)F
> 10	0.0026	0.8	0.0027	1.96	0.04	0.0028	0.0046	0.0024	> 10				C/C(=C/C=C/C(C)=C/C(=O)O)c1cc(-c2cc(F)cc(F)c2)cc(C(C)C)c1OCC(F)F
